Measurements reported in ChEMBL document CHEMBL4665705 (J Med Chem, 2020).
Values after ≈ are worked out from the molar mass of the structure shown.

Legend:
physchem = conditions: phosphate buffered saline, pH 7.4
[1] = buffer, pH 7.4
[2] = molecular target: Bromodomain-containing protein 4 (Homo sapiens, UniProt O60885, Y390A)
[3] = Drug metabolism in rat liver S9 fraction assessed as deacetylation to aniline at 10 uM incubated for 120 mins by FTMS analysis; type: ADME, subcellular; conditions: s9, 2 h
in vitro = conditions: PAMPA, pH 7.4
[4] = molecular target: Bromodomain-containing protein 4 (Homo sapiens, UniProt O60885, Y97A)
[5] = Drug metabolism in human liver S9 fraction assessed as deacetylation to aniline at 10 uM incubated for 120 mins by FTMS analysis; type: ADME, subcellular; conditions: s9, 2 h
[6] = Genotoxicity in Salmonella typhimurium TA1535 in absence of S9 fraction by Ames test; type: toxicity; conditions: salmonella enterica subsp. enterica serovar typhimurium
[7] = Genotoxicity in Salmonella typhimurium TA1537 in absence of S9 fraction by Ames test; type: toxicity; conditions: salmonella enterica subsp. enterica serovar typhimurium
[8] = Genotoxicity in Escherichia coli WP2uvrA in absence of S9 fraction by Ames test; type: toxicity
[9] = Genotoxicity in Salmonella typhimurium TA100 in presence of S9 fraction by Ames test; type: toxicity, subcellular; conditions: salmonella enterica subsp. enterica serovar typhimurium
[10] = Genotoxicity in Salmonella typhimurium TA100 in absence of S9 fraction by Ames test; type: toxicity; conditions: salmonella enterica subsp. enterica serovar typhimurium
[11] = Genotoxicity in Escherichia coli WP2uvrA in presence of S9 fraction by Ames test; type: toxicity, subcellular
[12] = Genotoxicity in Salmonella typhimurium TA1535 in presence of S9 fraction by Ames test; type: toxicity, subcellular; conditions: salmonella enterica subsp. enterica serovar typhimurium
[13] = Genotoxicity in Salmonella typhimurium TA98 in absence of S9 fraction by Ames test; type: toxicity; conditions: salmonella enterica subsp. enterica serovar typhimurium
[14] = Genotoxicity in Salmonella typhimurium TA98 in presence of S9 fraction by Ames test; type: toxicity, subcellular; conditions: salmonella enterica subsp. enterica serovar typhimurium
[15] = Genotoxicity in Salmonella typhimurium TA1537 in presence of S9 fraction by Ames test; type: toxicity, subcellular; conditions: salmonella enterica subsp. enterica serovar typhimurium

SMILES	solubility kinetic (physchem)	CHI [1]	IC50 [2]	Papp (in vitro)	IC50 [4]	also measured
CC(=O)Nc1ccc(C(=O)NC2CCOCC2)cc1O[C@@H](C)c1ccccc1	215 µg/mL (≈ 562 µM)	3.7	31.6 µM	34 ×10⁻⁶ cm/s	0.251 µM	Drug metabolism [3]: Metabolite_Detected; Drug metabolism [5]: Metabolite_Detected
CCNC(=O)c1cc(F)c(NC(C)=O)c(OCc2ccccc2)c1	18 µg/mL (≈ 54.5 µM)	3.1	> 50.1 µM	11 ×10⁻⁶ cm/s	1 µM	
CC(=O)Nc1ccc(C(=O)NCC2CCOCC2)cc1OCc1ccccc1	174 µg/mL (≈ 455 µM)	3.5	> 50.1 µM	19 ×10⁻⁶ cm/s	2.51 µM	
CC(=O)Nc1ccc(C(=O)NCCc2cnc[nH]2)cc1OCc1ccccc1	125 µg/mL (≈ 330 µM)	2.2		0.8 ×10⁻⁶ cm/s		
CC(=O)Nc1ccc(C(=O)N[C@H]2CC[C@H](O)CC2)cc1O[C@@H](C)c1ccccc1	170 µg/mL (≈ 429 µM)	3.1	39.8 µM	9.3 ×10⁻⁶ cm/s	0.158 µM	
CC(=O)Nc1ccccc1OCc1ccccc1	113 µg/mL (≈ 468 µM)	4.9		78 ×10⁻⁶ cm/s		
CC(=O)Nc1ccc(C(=O)NC2CCOCC2)cc1OCc1ccccc1	155 µg/mL (≈ 421 µM)	3.3	> 50.1 µM	19 ×10⁻⁶ cm/s	2 µM	
CC(=O)Nc1ccc(C(=O)NCCC2CCOCC2)cc1OCc1ccccc1	200 µg/mL (≈ 504 µM)	4	> 50.1 µM	10.4 ×10⁻⁶ cm/s	1.58 µM	
CC(=O)Nc1ccc(C(=O)NCC2CCNCC2)cc1OCc1ccccc1	< 3 µg/mL	1.7	> 50.1 µM	17 ×10⁻⁶ cm/s	0.794 µM	
CC(=O)Nc1ccc(C(=O)NCCCN)cc1OC(C)c1ccccc1 (racemic)	159 µg/mL (≈ 447 µM)	1.7	20 µM	< 0.3 ×10⁻⁶ cm/s	0.501 µM	
CC(=O)Nc1ccc(C(=O)NCCCN)cc1OCc1cccc(Cl)c1	96 µg/mL (≈ 255 µM)	2.1		1.1 ×10⁻⁶ cm/s		
CC(=O)Nc1ccc(C(=O)N[C@H]2CC[C@H](O)CC2)cc1OCc1ccccc1	174 µg/mL (≈ 455 µM)	2.7	> 50.1 µM	7.9 ×10⁻⁶ cm/s	1.26 µM	
CC(=O)Nc1ccc(C(=O)NCCCN)cc1OCc1ccncc1	112 µg/mL (≈ 327 µM)	0.1		0.3 ×10⁻⁶ cm/s		
CC(=O)Nc1ccc(C(=O)NCCCN)cc1OCC1CCOCC1	144 µg/mL (≈ 412 µM)	0.4	> 50.1 µM	< 0.3 ×10⁻⁶ cm/s	> 50.1 µM	
Nc1c(O)cc(C(=O)O)cc1F						Activity [6]: Non-Toxic; Activity [7]: Non-Toxic; Activity [8]: Toxic; Activity [9]: Non-Toxic; Activity [10]: Non-Toxic; Activity [11]: Toxic; Activity [12]: Non-Toxic; Activity [13]: Non-Toxic; Activity [14]: Non-Toxic; Activity [15]: Non-Toxic
COc1ccc(COc2cc(C(=O)NCCCN)ccc2NC(C)=O)cc1	114 µg/mL (≈ 307 µM)	1.3	39.8 µM	< 0.3 ×10⁻⁶ cm/s	2.51 µM	

SMILES	solubility kinetic (physchem)	CHI [1]	IC50 [2]	Papp (in vitro)	IC50 [4]	also measured
CC(=O)Nc1ccc(C(=O)NCCCN)cc1OCc1ccccc1	123 µg/mL (≈ 360 µM)	1.6	31.6 µM	< 0.3 ×10⁻⁶ cm/s	1.58 µM	
CC(=O)Nc1ccc(C(=O)NC2CCOCC2)cc1O[C@H](C)c1ccccc1	159 µg/mL (≈ 416 µM)	3.8	> 50.1 µM	30 ×10⁻⁶ cm/s	12.6 µM	
C[C@H](Oc1cc(C(=O)N[C@H]2CC[C@H](O)CC2)ccc1N)c1ccccc1						Activity [6]: Non-Toxic; Activity [7]: Non-Toxic; Activity [8]: Non-Toxic; Activity [9]: Non-Toxic; Activity [10]: Non-Toxic; Activity [11]: Non-Toxic; Activity [12]: Non-Toxic; Activity [13]: Non-Toxic; Activity [14]: Non-Toxic; Activity [15]: Non-Toxic
CC(=O)Nc1ccc(C(=O)NCCO)cc1OCc1ccccc1	162 µg/mL (≈ 493 µM)	2.3	> 50.1 µM	6.8 ×10⁻⁶ cm/s	5.01 µM	
CCNC(=O)c1cc(OCc2ccccc2)c(NC(C)=O)cc1F	159 µg/mL (≈ 481 µM)	4.4	> 50.1 µM	67 ×10⁻⁶ cm/s	1.58 µM	
CC(=O)Nc1ccc(C(=O)NCCCN)cc1OCc1ccc(Cl)cc1	108 µg/mL (≈ 287 µM)	2.2	25.1 µM	< 0.3 ×10⁻⁶ cm/s	2 µM	
CC(=O)Nc1ccc(C(=O)NCCCN)cc1OCc1ccc(C)cc1	114 µg/mL (≈ 321 µM)	2	31.6 µM	0.65 ×10⁻⁶ cm/s	2 µM	
CC(=O)Nc1ccc(C(=O)NCCCN)cc1OCc1ccccc1Cl	124 µg/mL (≈ 330 µM)	1.9	39.8 µM	1.5 ×10⁻⁶ cm/s	2.51 µM	
CC(=O)Nc1ccc(C(=O)NCCCO)cc1OCc1ccccc1	109 µg/mL (≈ 318 µM)	2.4	> 50.1 µM	9.4 ×10⁻⁶ cm/s	3.98 µM	
CC(=O)Nc1ccc(C(=O)NCCCN)cc1OCc1cccnc1	130 µg/mL (≈ 380 µM)	0.2	> 50.1 µM	< 0.3 ×10⁻⁶ cm/s	15.8 µM	
CCNC(=O)c1ccc(NC(C)=O)c(OCc2ccccc2)c1	143 µg/mL (≈ 458 µM)	3.5	> 50.1 µM	32 ×10⁻⁶ cm/s	6.31 µM	
CC(=O)Nc1ccc(C(=O)NCCCN)cc1OCc1ccc(C(C)C)cc1	114 µg/mL (≈ 297 µM)	3.1		0.77 ×10⁻⁶ cm/s		
CC(=O)Nc1ccc(C(=O)NCCCN)cc1OCc1ccc(C(N)=O)cc1	151 µg/mL (≈ 393 µM)	0	> 50.1 µM	< 0.3 ×10⁻⁶ cm/s	10 µM	
CC(=O)Nc1ccc(C(=O)NCCCN)cc1OCc1ccccn1	80 µg/mL (≈ 234 µM)	0.3	> 50.1 µM	< 0.3 ×10⁻⁶ cm/s	10 µM	
CCNC(=O)c1ccc(NC(C)=O)c(OCc2ccccc2)c1F	119 µg/mL (≈ 360 µM)	2.5	> 50.1 µM	46 ×10⁻⁶ cm/s	20 µM	
